Source: patent publication US20140350081A1, “INSECT G-COUPLED RECEPTORS USEFUL AS TARGETS FOR INSECTICIDES AND COMPOUNDS AND REAGENTS IDENTIFIED USING THE SAME” (priority 2011, published 2014)
Structures can show the parent of a compound that is named as a salt. Where two headings read alike, the source gives them in different places.

Legend:
AaDOP2 = AaDOP2 (Aedes aegypti, UniProt H6D5H2); test: HTRF cAMP accumulation concentration response assay (Cisbio Dynamic 2); assay type: cell-based
Isdop2 = Isdop2 (Ixodes scapularis, UniProt A0ACM8DGL0); test: cell-based; conditions: for inhibition at 10 µM: read-out: % Inhibition (of response to dopamine), Isdop2 screen
Sequence of Isdop2 (A0ACM8DGL0 entry or part of it): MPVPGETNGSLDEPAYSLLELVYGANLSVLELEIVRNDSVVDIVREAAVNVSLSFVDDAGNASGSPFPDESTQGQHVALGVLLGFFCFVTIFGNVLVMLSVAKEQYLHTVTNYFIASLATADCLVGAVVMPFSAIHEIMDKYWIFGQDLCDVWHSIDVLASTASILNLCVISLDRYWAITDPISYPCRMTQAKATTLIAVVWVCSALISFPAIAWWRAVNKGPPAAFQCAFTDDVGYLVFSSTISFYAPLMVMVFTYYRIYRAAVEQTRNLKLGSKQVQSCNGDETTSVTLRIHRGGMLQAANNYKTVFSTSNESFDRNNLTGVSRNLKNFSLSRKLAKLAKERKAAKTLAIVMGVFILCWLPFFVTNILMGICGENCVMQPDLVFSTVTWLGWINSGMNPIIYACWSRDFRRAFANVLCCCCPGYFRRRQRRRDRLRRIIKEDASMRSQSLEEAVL

Ae. aegypti L3 larvae = test: whole plant or invertebrate; conditions: Aedes aegypti
[1] = in vitro Concentration Response Curve assay, n = 2, relative to control antagonist Amitriptyline, read-out: Avg IC50
[2] = 24 h, read-out: Toxicity to Aedes aegypti larvae (mortality) 24 hours, 400 μM, L3 larvae, three independent experiments
[3] = 48 h, read-out: Toxicity to Aedes aegypti larvae (mortality) 48 hours, 400 μM, L3 larvae, three independent experiments
[4] = 72 h, read-out: Toxicity to Aedes aegypti larvae (mortality) 72 hours, 400 μM, L3 larvae, three independent experiments
[5] = 10 μM compound, footnote 3 mM dopamine
[6] = 0.5 h, read-out: percent mortality 0.5 hr, 400 uM, L3 larvae, value for this scoring time
[7] = 1 h, read-out: percent mortality 1 hr, 400 uM, L3 larvae, per scoring time
[8] = 2 h, read-out: percent mortality 2 hr, 400 uM, L3 larvae, per scoring time
[9] = 3 h, read-out: percent mortality 3 hr, 400 uM, L3 larvae, per scoring time
[10] = 4 h, read-out: percent mortality 4 hr, 400 uM, L3 larvae, per scoring time
[11] = 24 h, read-out: percent mortality 24 hr, 400 uM, L3 larvae, per scoring time
[12] = 48 h, read-out: percent mortality 48 hr, 400 uM, L3 larvae, per scoring time
[13] = 72 h, read-out: Cumulative % Mortality (72 hrs), 400 uM, L3 larvae
[14] = 72 h, read-out: percent mortality 72 hr, 400 uM, L3 larvae, per scoring time
[15] = […], read-out: percent mortality […], 400 uM, L3 larvae, per scoring time

Sequence of AaDOP2 (H6D5H2 entry or part of it): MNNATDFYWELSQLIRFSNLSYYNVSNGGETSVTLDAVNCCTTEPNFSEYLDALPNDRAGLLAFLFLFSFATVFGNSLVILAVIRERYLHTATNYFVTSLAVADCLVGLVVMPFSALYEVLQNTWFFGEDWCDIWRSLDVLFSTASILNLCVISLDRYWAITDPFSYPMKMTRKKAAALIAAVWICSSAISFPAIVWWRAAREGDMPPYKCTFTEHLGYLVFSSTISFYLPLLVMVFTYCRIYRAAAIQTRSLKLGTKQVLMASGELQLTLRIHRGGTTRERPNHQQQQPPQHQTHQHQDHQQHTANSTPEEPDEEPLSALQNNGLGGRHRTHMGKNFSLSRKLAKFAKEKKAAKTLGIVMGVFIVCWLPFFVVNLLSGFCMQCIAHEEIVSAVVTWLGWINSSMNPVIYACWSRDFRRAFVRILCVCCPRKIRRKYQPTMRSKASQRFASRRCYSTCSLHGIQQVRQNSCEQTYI

Compound `CCC(=O)Nc1ccc(Nc2nc(C)cc(Nc3ccccc3)n2)cc1` [Compound G869-0096, N-(4-((4-methyl-6-(phenylamino)pyrimidin-2-yl)amino)phenyl)propionamide] has an IC50 (AaDOP2; [1]) of 4.74 µM.

Compound `CN1CCN(CCCN2c3ccccc3Sc3ccc(Cl)cc32)CC1` [Prochlorperazine, 2-chloro-10-[3-(4-methyl-1-piperazinyl)propyl]-10H-phenothiazine] has an inhibition at 10 µM (Isdop2) of 86%.

With `CNCCC(Oc1ccc(C(F)(F)F)cc1)c1ccccc1` (stereo not shown) [Fluoxetine] the mortality at 400 µM (Ae. aegypti L3 larvae; [2]) was 43%, the mortality at 400 µM (Ae. aegypti L3 larvae; [3]) was 53% and the mortality at 400 µM (Ae. aegypti L3 larvae; [4]) was 53%.

In the case of `CC1CNCCN1S(=O)(=O)c1cccc2cnccc12.Cl.Cl` (stereo not shown) [H-7 dihydrochloride], the “% Inhibition (of response to dopamine), Isdop2 screen” value (shortened to “% Inhibition”) (Isdop2) is reported as 73%.

Compound `Clc1ccc2c(c1)C(N1CCNCC1)=Nc1ccccc1O2` [Amoxapine, 2-Chloro-11-(piperazin-1-yl)dibenzo[b,f][1,4]oxazepine] has an inhibition at 10 µM (Isdop2) of 92%.

`Cc1cc(Nc2ccccc2)nc(Nc2ccc(NC(=O)C(C)(C)C)cc2)n1` [Compound G869-0100, N-(4-((4-methyl-6-(phenylamino)pyrimidin-2-yl)amino)phenyl)pivalamide] gave an IC50 (AaDOP2; [1]) of 2.08 µM.

Compound `CN1CCc2c(c3ccccc3n2Cc2ccccc2)C1` [ST088437, 2-methyl-5-benzyl-1,2,3,4-tetrahydropyridino[4,3-b]indole] has an IC50 (AaDOP2; [1]) of 1.97 µM.

In the case of `CCn1cnc2c(Nc3cccc(Cl)c3)nc(N[C@@H]3CCCC[C@@H]3N)nc21.Cl` [CGP-74514A hydrochloride], the “% Inhibition” value (Isdop2) is reported as 98%.

Compound `CN(C)CCC=C1c2ccccc2C=Cc2ccccc21` [Cyclobenzaprine] has an inhibition at 10 µM (Isdop2) of 95%.

Work on `CC(=O)c1c(O)c(C)c(O)c(Cc2c(O)c3c(c(C(=O)/C=C/c4ccccc4)c2O)OC(C)(C)C=C3)c1O` [Rottlerin] yielded an inhibition at 10 µM (Isdop2) of 97%.

For `O=c1cc(-c2ccc(O)cc2)oc2cc(O)cc(O)c12` [Apigenin], the inhibition at 10 µM (Isdop2) was 98%.

With `CC(C)(C)c1cc(C=C(C#N)C#N)cc(C(C)(C)C)c1O` [Tyrphostin A9] the “% Inhibition” value (Isdop2; [5]) was 87%.

`CN1[C@@H]2CC[C@H]1C[C@@H](OC(c1ccccc1)c1ccccc1N)C2` (stereo partly shown) [Aminobenztropine] gave an inhibition at 10 µM (Isdop2) of 71%.

In the case of `CN1CCN(CCCN2c3ccccc3Sc3ccc(C(F)(F)F)cc32)CC1` [Trifluoperazine, 10-[3-(4-methylpiperazin-1-yl)propyl]-2-(trifluoromethyl)-10H-phenothiazine], the inhibition at 10 µM (Isdop2) is reported as 76%.

For `Cc1ccc(O)c(N=Nc2ccccc2)n1` [SIB 1757], the “% Inhibition” value (Isdop2; [5]) was 100%.

Compound `CC(=O)c1ccc2c(c1)OCO2` [ST092311, 5-acetyl-2H-benzo[d]1,3-dioxolene] has an IC50 (AaDOP2) of 5.82 µM.

With `COc1ccc(Nc2nc(N3CCN(C)CC3)nc3c2cnn3-c2ccccc2)cc1` [Compound G932-0529, N-(4-methoxyphenyl)-6-(4-methylpiperazin-1-yl)-1-phenyl-1H-pyrazolo[3,4-d]pyrimidin-4-amine] the IC50 (AaDOP2; [1]) was 6.87 µM.

Work on `c1ccc2c(c1)[I+]c1ccccc1-2` [Diphenyleneiodonium chloride] yielded an inhibition at 10 µM (Isdop2) of 78%.

Work on `CN1CCN(c2nc(Nc3ccc4c(c3)OCO4)c3cnn(-c4ccccc4)c3n2)CC1` [Compound G932-0818, N-(benzo[d][1,3]dioxol-5-yl)-6-(4-methylpiperazin-1-yl)-1-phenyl-1H-pyrazolo[3,4-d]pyrimidin-4-amine] yielded an IC50 (AaDOP2; [1]) of 1.65 µM.

In the case of `CCN1CCN(c2nc(Nc3cccc(F)c3)c3cnn(-c4ccccc4)c3n2)CC1` [Compound G932-0687, 6-(4-ethylpiperazin-1-yl)-N-(3-fluorophenyl)-1-phenyl-1H-pyrazolo[3,4-d]pyrimidin-4-amine], the IC50 (AaDOP2; [1]) is reported as 0.769 µM.

`COc1ccc(C(=O)Nc2nc(-c3ccc4c(c3)OCCO4)cs2)cc1OC` [ST075014, N-(4-(2H,3H-benzo[3,4-e]1,4-dioxin-6-yl)(1,3-thiazol-2-yl))(3,4-dimethoxyphenyl)carboxamide] gave an IC50 (AaDOP2; [1]) of 8.31 µM.

`CCN(CC)C(=O)N[C@H]1C[C@@H]2c3cccc4[nH]cc(c34)C[C@H]2N(C)C1` [R(+)-Terguride] was tested, and the “% Inhibition” value (Isdop2) was 68%.

`O=C1Nc2ccc(I)cc2/C1=C/c1cc(Br)c(O)c(Br)c1` [GW5074] was tested, and the “% Inhibition” value (Isdop2) was 81%.

`OC[C@H]1O[C@@H](n2cnc3ccccc32)[C@H](O)[C@@H]1O` [D-ribofuranosylbenzimidazole] was tested, and the “% Inhibition” value (Isdop2; [5]) was 82%.

Compound `CSc1ccc2c(c1)N(CCC1CCCCN1C)c1ccccc1S2` (racemic) [Thioridazine, 10-{2-[(RS)-1-Methylpiperidin-2-yl]ethyl}-2-methylsulfanylphenothiazine] has an inhibition at 10 µM (Isdop2) of 85%.

`C[C@@H]1O[C@@H](O[C@H]2C[C@@H](O)[C@]3(CO)[C@H]4[C@H](O)C[C@]5(C)[C@@H]([C@@H]6COC(=O)C6)CC[C@]5(O)[C@@H]4CC[C@]3(O)C2)[C@H](O)[C@H](O)[C@H]1O` [Dihydroouabain] was tested, and the “% Inhibition” value (Isdop2; [5]) was 76%.

With `O=C(N[C@@H](Cc1ccccc1)C(=O)CCl)OCc1ccccc1` [Z-L-Phe chloromethyl ketone] the “% Inhibition” value (Isdop2) was 90%.

`CN1CCN(CC(=O)N2c3ccccc3C(=O)Nc3cccnc32)CC1` [Pirenzepine] was tested, and the mortality at 400 µM (Ae. aegypti L3 larvae; [6]) was 0%, the mortality at 400 µM (Ae. aegypti L3 larvae; [7]) was 0% and the mortality at 400 µM (Ae. aegypti L3 larvae; [8]) was 0%. It also gave a mortality at 400 µM (Ae. aegypti L3 larvae; [9]) of 0%, a mortality at 400 µM (Ae. aegypti L3 larvae; [10]) of 0% and a mortality at 400 µM (Ae. aegypti L3 larvae; [2]) of 0%. The mortality at 400 µM (Ae. aegypti L3 larvae; [11]) was 0%, the mortality at 400 µM (Ae. aegypti L3 larvae; [3]) was 0% and the mortality at 400 µM (Ae. aegypti L3 larvae; [12]) was 0%. For the same compound, the mortality at 400 µM (Ae. aegypti L3 larvae; [13]) was 0%, the mortality at 400 µM (Ae. aegypti L3 larvae; [4]) was 0% and the mortality at 400 µM (Ae. aegypti L3 larvae; [14]) was 0%. It also gave a mortality at 400 µM (Ae. aegypti L3 larvae; [15]) of 0%.

Compound `COc1ccccc1N1CCN(CCCCNC(=O)c2ccc3ccccc3c2)CC1` [BP 897] has an inhibition at 10 µM (Isdop2) of 71%.

`O=C(c1ccc(F)cc1)C1CCN(CCn2c(=O)[nH]c3ccccc3c2=O)CC1` [Ketanserin] gave a mortality at 400 µM (Ae. aegypti L3 larvae; [6]) of 0%, a mortality at 400 µM (Ae. aegypti L3 larvae; [7]) of 0% and a mortality at 400 µM (Ae. aegypti L3 larvae; [8]) of 0%. The mortality at 400 µM (Ae. aegypti L3 larvae; [9]) was 0%, the mortality at 400 µM (Ae. aegypti L3 larvae; [10]) was 0% and the mortality at 400 µM (Ae. aegypti L3 larvae; [2]) was 0%. For the same compound, the mortality at 400 µM (Ae. aegypti L3 larvae; [11]) was 0%, the mortality at 400 µM (Ae. aegypti L3 larvae; [3]) was 0% and the mortality at 400 µM (Ae. aegypti L3 larvae; [12]) was 0%. For the same compound, the mortality at 400 µM (Ae. aegypti L3 larvae; [13]) was 0%, the mortality at 400 µM (Ae. aegypti L3 larvae; [4]) was 0% and the mortality at 400 µM (Ae. aegypti L3 larvae; [14]) was 0%. The mortality at 400 µM (Ae. aegypti L3 larvae; [15]) was 0%.

Work on `C[C@@H]1O[C@@H](O[C@H]2C[C@@H](O)[C@]3(CO)[C@H]4[C@H](O)C[C@]5(C)[C@@H](C6=CC(=O)OC6)CC[C@]5(O)[C@@H]4CC[C@]3(O)C2)[C@H](O)[C@H](O)[C@H]1O` [Ouabain] yielded an inhibition at 10 µM (Isdop2) of 86%.

Compound `CN1CCN2c3ccccc3Cc3ccccc3C2C1` (racemic) [Mianserin, ((±)-2-methyl-1,2,3,4,10,14b-hexahydrodibenzo[c,f]pyrazino [1,2-a]azepine)] has an inhibition at 10 µM (Isdop2) of 87%.

With `NC(=Nc1ccccc1)NC(=O)c1nc(Cl)c(N)nc1N` [Phenamil methanesulfonate] the inhibition at 10 µM (Isdop2) was 72%.

`COc1ccccc1N1CCN(CCCCN2C(=O)c3ccccc3C2=O)CC1` [NAN-190 hydrobromide] was tested, and the inhibition at 10 µM (Isdop2) was 69%.

In the case of `OCCN1CCN(CCCN2c3ccccc3Sc3ccc(C(F)(F)F)cc32)CC1` [Fluphenazine, 2-[4-[3-[2-(trifluoromethyl)-10H-phenothiazin-10-yl]propyl]piperazin-1-yl]ethanol], the inhibition at 10 µM (Isdop2) is reported as 79%.

`Cc1cc(N)c2ccccc2[n+]1CCCCCCCCCC[n+]1c(C)cc(N)c2ccccc21` [Dequalinium dichloride] showed an inhibition at 10 µM (Isdop2) of 75%.

Compound `O=c1c(-c2ccc(O)cc2)coc2cc(O)cc(O)c12` [Genistein] has an inhibition at 10 µM (Isdop2) of 71%.

`C=C(C)[C@H]1Cc2c(ccc3c2O[C@@H]2COc4cc(OC)c(OC)cc4[C@@H]2C3=O)O1` [Rotenone] was tested, and the inhibition at 10 µM (Isdop2) was 77%.

Compound `CN1CCC(=C2c3ccccc3C=Cc3ccccc32)CC1` [Cyproheptadine] has an inhibition at 10 µM (Isdop2) of 93%.

For `O=C1Nc2ccccc2/C1=C1/Nc2ccccc2/C1=N\O` [Indirubin-3′-oxime], the “% Inhibition” value (Isdop2) was 93%.

`Cc1nc2n(c(=O)c1CCN1CCC(c3noc4cc(F)ccc34)CC1)CCCC2` [Risperidone, 4-[2-[4-(6-fluorobenzo[d]isoxazol-3-yl)-1-piperidyl]ethyl]-3-methyl-2,6-diazabicyclo[4.4.0]deca-1,3-dien-5-one] showed an inhibition at 10 µM (Isdop2) of 100%.

`CC[C@H](CO)Nc1nc(NCc2ccccc2)c2ncn(C(C)C)c2n1` [Roscovitine] was tested, and the inhibition at 10 µM (Isdop2) was 91%.

For `CC(C)(C)c1cc(/C=C(\C#N)C(N)=S)cc(C(C)(C)C)c1O` [Tyrphostin AG 879], the “% Inhibition” value (Isdop2) was 75%.

In the case of `CN1CCc2cccc(Cl)c2CC1` [SKF86466], the “% Inhibition” value (Isdop2; [5]) is reported as 86%.

With `COC1=C(OC)C(=O)c2ccccc2C1=O` [2,3-Dimethoxy-1,4-naphthoquinone] the inhibition at 10 µM (Isdop2) was 68%.

Compound `C[n+]1cc2c3c(ccc2c2ccc4cc5c(cc4c21)OCO5)OCO3` [Sanguinarine chloride] has an inhibition at 10 µM (Isdop2) of 100%.

`Br.CN1CCc2cc(O)c(O)cc2C(c2ccccc2)C1` (stereo not shown) [SKF 75670 hydrobromide] was tested, and the “% Inhibition” value (Isdop2) was 68%.

`COc1cccc(-c2cc(=O)c3ccccc3o2)c1N` [PD 98,059] was tested, and the “% Inhibition” value (Isdop2; [5]) was 87%.

`O=c1c(-c2ccc(O)cc2)coc2cc(O)ccc12` [Daidzein] showed an inhibition at 10 µM (Isdop2) of 77%.

In the case of (±)-Butaclamol hydrochloride, the “% Inhibition” value (Isdop2) is reported as 86%.
